Test results published in patent US9982016B2, “NPR-B agonists” (priority 2009, dated 2018).
Where two headings read alike, the source gives them in different places. Numbered stars: 1 amine (or outer) side, 2 acyl side, 3 side chain; on linkers, the order of the positions; unused ones are H or OH. Square brackets hold non-standard residues; d marks the D form. Peptide text beside a SMILES is read from it. * marks the point of attachment. Pro(4R-NH2) = N[C@H]1CN[C@H](C(=O)O)C1; X2 = O=C([C@H]1CCCN([*:1])C1)[*:2]; NMeR = CN[C@@H](CCCNC(=N)N)C(=O)O; X1 = CCCCCCCCN1CCC[C@H](C(=O)*)C1; dDap(Me2) = CN(C)C[C@@H](N)C(=O)O; Hyp = O=C(O)[C@@H]1C[C@@H](O)CN1; NMeF = CN[C@@H](Cc1ccccc1)C(=O)O; NMeL = CN[C@@H](CC(C)C)C(=O)O; Octanoyl = CCCCCCCC(=O)*

Key:
NPR-B = biological target: T1, NPR-B (Homo sapiens, UniProt P20594); test: NPR-B induced production of cyclic GMP in human glaucoma trabecular meshwork cells (GTM-3); format: cell-based
T1 construct: endogenously NPR-B expressing GTM-3 cells; endogenous in cells; host or cells: GTM-3 (human glaucoma trabecular meshwork cells)
T1 sequence (P20594 23-1047): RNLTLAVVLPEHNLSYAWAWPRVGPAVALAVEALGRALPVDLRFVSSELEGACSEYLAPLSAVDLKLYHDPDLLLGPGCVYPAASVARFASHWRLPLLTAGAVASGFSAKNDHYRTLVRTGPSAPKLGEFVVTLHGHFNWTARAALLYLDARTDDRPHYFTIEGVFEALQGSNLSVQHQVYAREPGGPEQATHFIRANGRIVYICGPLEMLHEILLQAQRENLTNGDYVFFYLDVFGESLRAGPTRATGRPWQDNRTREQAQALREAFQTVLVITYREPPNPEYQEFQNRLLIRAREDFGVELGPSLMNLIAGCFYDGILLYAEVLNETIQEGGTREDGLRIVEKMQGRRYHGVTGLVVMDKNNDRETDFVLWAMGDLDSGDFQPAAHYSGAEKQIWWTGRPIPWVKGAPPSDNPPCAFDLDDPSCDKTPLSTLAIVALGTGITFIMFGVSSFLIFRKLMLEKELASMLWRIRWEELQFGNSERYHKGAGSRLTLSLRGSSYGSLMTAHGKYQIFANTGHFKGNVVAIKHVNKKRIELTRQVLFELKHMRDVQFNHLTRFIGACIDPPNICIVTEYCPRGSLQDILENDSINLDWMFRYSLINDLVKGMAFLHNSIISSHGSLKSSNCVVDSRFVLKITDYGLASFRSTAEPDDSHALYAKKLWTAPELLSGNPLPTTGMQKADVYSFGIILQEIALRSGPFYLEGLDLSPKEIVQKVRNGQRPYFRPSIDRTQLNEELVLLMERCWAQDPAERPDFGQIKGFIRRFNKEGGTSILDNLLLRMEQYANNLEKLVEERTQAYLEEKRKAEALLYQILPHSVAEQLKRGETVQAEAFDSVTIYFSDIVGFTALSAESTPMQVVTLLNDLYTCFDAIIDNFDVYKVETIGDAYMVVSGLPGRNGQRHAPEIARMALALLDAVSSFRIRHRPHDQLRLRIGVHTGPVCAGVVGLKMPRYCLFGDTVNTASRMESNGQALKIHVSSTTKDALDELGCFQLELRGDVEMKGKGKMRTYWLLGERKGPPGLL

chondrocytes = settings: low doses 10 to 100 pM, at the highest dose; cited from earlier work
[1] = tested on: human renal carcinoma cells; settings: 100 μM; cited from earlier work
[2] = tested on: human colon adenocarcinoma cells; settings: 1 mM, within 24 h; cited from earlier work
[3] = NPR-B activation in GTM-3 cells, group set by EC50 and Emax (CNP = 100%), read-out: Activity (group)

CCCCCCCCN1CCC[C@H](C(=O)N[C@@H](Cc2ccccc2)C(=O)N[C@H](CN(C)C)C(=O)N[C@@H](CC(C)C)C(=O)N2C[C@H](O)C[C@H]2C(=O)N(C)[C@@H](CC(C)C)C(=O)N[C@@H](CC(=O)O)C(=O)N[C@@H](CCCNC(=N)N)C(=O)N[C@H](C(N)=O)[C@@H](C)CC)C1 [JAL-1429, Oct-Sni-Phe-dap(Me2)-Leu-Hyp-Nml-Asp-Arg-Ile-NH2] (HELM PEPTIDE1{[CCCCCCCCN1CCC[C@H](C(=O)[*:2])C1].F.[CN(C)C[C@@H](N[*:1])C(=O)[*:2]].L.[Hyp].[meL].D.R.I.[am]}$$$$V2.0)
EC50 (NPR-B; [3]): < 1000 nM

CCCCCCCCN1CCC[C@H](C(=O)N[C@@H](Cc2ccccc2)C(=O)N[C@H](CN(C)C)C(=O)N[C@@H](CC(C)C)C(=O)N2C[C@H](N)C[C@H]2C(=O)N(C)[C@@H](CC(C)C)C(=O)N[C@@H](CC(=O)O)C(=O)N[C@@H](CCCNC(=N)N)C(=O)N[C@H](C(N)=O)[C@@H](C)CC)C1 [JAL-1369, Oct-Sni-Phe-dap(Me2)-Leu-Tap-Nml-Asp-Arg-Ile-NH2] (X1-F[dDap(Me2)]L[Pro(4R-NH2)][NMeL]DRI-NH2)
EC50 (NPR-B; [3]): < 1000 nM

CC[C@H](C)[C@@H]1NC(=O)[C@H](CCCNC(=N)N)NC(=O)[C@H](CC(=O)O)NC(=O)[C@H](CC(C)C)NC(=O)[C@H](CCCCN)NC(=O)[C@H](CC(C)C)NC(=O)CNC(=O)[C@H](Cc2ccccc2)NC(=O)[C@@H](NC(=O)CNC(=O)[C@H](CCCCN)NC(=O)[C@H](CO)NC(=O)[C@H](CC(C)C)NC(=O)CN)CSSC[C@@H](C(=O)O)NC(=O)CNC(=O)[C@H](CC(C)C)NC(=O)CNC(=O)[C@H](CO)NC(=O)[C@H](CCSC)NC(=O)[C@H](CO)NC(=O)CNC1=O [CNP, C-type natriuretic peptide]
increase in cellularity (chondrocyte proliferation) (chondrocytes): up to 43% | decrease in cell number [1]: 10%

CCCCCCCC(=O)N1CCC[C@H](C(=O)N(C)[C@@H](Cc2ccccc2)C(=O)N[C@H](CN(C)C)C(=O)N[C@@H](CC(C)C)C(=O)N2C[C@H](O)C[C@H]2C(=O)N(C)[C@@H](CC(C)C)C(=O)N[C@@H](CC(=O)O)C(=O)N[C@@H](CCCNC(=N)N)C(=O)N[C@H](C(N)=O)[C@@H](C)CC)C1 [JAL-1579, Occ-Sni-Nmf-dap(Me2)-Leu-Hyp-Nml-Asp-Arg-Ile-NH2] (Octanoyl-[X2][NMeF][dDap(Me2)]L[Hyp][NMeL]DRI-NH2)
EC50 (NPR-B; [3]): < 1000 nM

CC[C@H](C)[C@@H]1NC(=O)[C@H](CCCNC(=N)N)NC(=O)[C@H](CC(=O)O)NC(=O)[C@H](CCSC)NC(=O)[C@H](CCCNC(=N)N)NC(=O)CNC(=O)CNC(=O)[C@H](Cc2ccccc2)NC(=O)[C@H](Cc2c[nH]cn2)NC(=O)[C@@H](NC(=O)[C@@H](N)CCSC)CSSC[C@@H](C(=O)N[C@@H](Cc2ccc(O)cc2)C(=O)N[C@@H](CCCNC(=N)N)C(N)=O)NC(=O)[C@H](CO)NC1=O [mini-ANP, reference compound] (HELM PEPTIDE1{M.C.H.F.G.G.R.M.D.R.I.S.C.Y.R.[am]}$PEPTIDE1,PEPTIDE1,2:R3-13:R3$$$V2.0)
EC50 (NPR-B; GTM-3 cells, 4-Parameter Logistic Equation, highest concentration 45 μM, FIG. 2, read-out: EC50, cyclic GMP production in GTM-3 cells): > 45000 nM

CCCCCCCC(=O)N1CCC[C@H](C(=O)N[C@@H](Cc2ccccc2)C(=O)N[C@H](CN(C)C)C(=O)N[C@@H](CC(C)C)C(=O)N2C[C@H](O)C[C@H]2C(=O)N(C)[C@@H](CC(C)C)C(=O)N[C@@H](CC(=O)O)C(=O)N(C)[C@@H](CCCNC(=N)N)C(=O)N[C@H](C(N)=O)[C@@H](C)CC)C1 [JAL-1576, Occ-Sni-Phe-dap(Me2)-Leu-Hyp-Nml-Asp-Nmr-Ile-NH2] (Octanoyl-[X2]F[dDap(Me2)]L[Hyp][NMeL]D[NMeR]I-NH2)
EC50 (NPR-B; [3]): < 1000 nM

CC[C@H](C)[C@@H]1NC(=O)[C@H](CCCNC(=N)N)NC(=O)[C@H](CC(=O)O)NC(=O)[C@H](CCSC)NC(=O)[C@H](CCCNC(=N)N)NC(=O)CNC(=O)CNC(=O)[C@H](Cc2ccccc2)NC(=O)[C@@H](NC(=O)[C@H](CO)NC(=O)[C@H](CO)NC(=O)[C@H](CCCNC(=N)N)NC(=O)[C@H](CCCNC(=N)N)NC(=O)[C@H](CC(C)C)NC(=O)[C@@H](N)CO)CSSC[C@@H](C(=O)N[C@@H](CC(N)=O)C(=O)N[C@@H](CO)C(=O)N[C@@H](Cc2ccccc2)C(=O)N[C@@H](CCCNC(=N)N)C(=O)N[C@@H](Cc2ccc(O)cc2)C(=O)O)NC(=O)CNC(=O)[C@H](CC(C)C)NC(=O)CNC(=O)[C@H](CO)NC(=O)[C@H](CCC(N)=O)NC(=O)[C@H](C)NC(=O)CNC1=O [ANP, atrial natriuretic peptide]
decrease in cell number [2]: up to 97%

CCCCCCCC(=O)N[C@H](C)C(=O)N[C@@H](Cc1ccccc1)C(=O)N[C@H](CC(C)C)C(=O)N[C@@H](CC(C)C)C(=O)N1C[C@H](O)C[C@H]1C(=O)N(C)[C@@H](CC(C)C)C(=O)N[C@@H](C(=O)N[C@@H](CCCNC(=N)N)C(=O)N[C@H](C(N)=O)[C@@H](C)CC)c1cccs1 [JAL-1558, Occ-ala-Phe-leu-Leu-Hyp-Nml-(BB727)-Arg-Ile-NH2] (HELM PEPTIDE1{[CCCCCCCC(=O)[*:2]].[dA].F.[dL].L.[Hyp].[meL].[O=C([C@H](N[*:1])c1cccs1)[*:2]].R.I.[am]}$$$$V2.0)
EC50 (NPR-B; [3]): < 1000 nM

CCCCCCCC(=O)N1CCC[C@H](C(=O)N[C@@H](Cc2ccccc2)C(=O)N[C@H](CN(C)C)C(=O)N[C@@H](CC(C)C)C(=O)N2C[C@H](O)C[C@H]2C(=O)N(C)[C@@H](CC(C)C)C(=O)N[C@@H](CC(=O)O)C(=O)N2CCC[C@H]2C(=O)N[C@H](C(N)=O)[C@@H](C)CC)C1 [JAL-1580, Occ-Sni-Phe-dap(Me2)-Leu-Hyp-Nml-Asp-Pro-Ile-NH2] (Octanoyl-[X2]F[dDap(Me2)]L[Hyp][NMeL]DPI-NH2)
EC50 (NPR-B; [3]): < 1000 nM
